Data published in patent publication US10738076B2, “Lanosterol prodrug compound and preparation method therefor and use thereof” (ZHONGSHAN OPHTHALMIC CENTER, SUN YAT-SEN UNIVERSITY, priority 2017, dated 2020).
“Also recorded” adds a separate entry of the source. Like-named read-outs stand apart in the source and are kept apart here.

Columns and labels:
[1] = ophthalmic drug penetration and drug conversion to lanosterol in vivo (aqueous humor concentration after eye drops); set-up: species or system New Zealand white rabbits
Method: In this study, New Zealand white rabbits (body weight was more than 2 kg, age was more than 12 weeks) were used as experimental animals. Each compound was studied with two New Zealand white rabbits. Each rabbit was instilled with […] eye drops in each eyes three eyes were used to collect aqueous humor samples and one eye was used as a backup. […] After the eye drops was dripped into the rabbit's eyes, the anterior aqueous humor was collected at 0.5, 2, 4 and 6 hours after administration. The volume of each sample was not more than 50 μL. Each animal was given mild anesthesia before collecting samples. Three samples were collected at every time point. The collected aqueous humor samples were stored in dry ice immediately after collection or stored in a refrigerator at −80±10° C. After the sample collection, the animals were euthanized. The concentration of the compound in each sample was determined using a triple quadrupole mass spectrometer (API 4000).

[2] = test system: sodium selenite-induced neonatal New Zealand rabbit cataract model; assay: sodium selenite-induced cataract model, lens transparency test in vitro; format: in vivo, neonatal New Zealand rabbits; settings: after 42 days of administration
Method: (§1) P7 days old neonatal New Zealand rabbits, normal grade, and 5 young rabbits per litter were breast-fed with a mother rabbit.
(§2) The experimental young rabbits were randomly divided into 5 groups with 5 rabbits per group.
(§3) 1) Normal control group (NC): in the P10 day, young rabbits were injected subcutaneously with 0.25 mL physiological saline from the neck, and were not administered after the P15 day.
(§4) 2) Model control group (MC): in the P10 day, young rabbits were injected subcutaneously with sodium selenite solution (in physiological saline) at 20 μmol/kg body weight, and after the P15 day, drug-free blank eyes drops was dripped into the right eye 3 times every day for 42 days.
as §4, with “3) Positive” for “2) Model”, “(PC):” for “(MC):”, “kary uni eye” for “drug-free blank eyes”, “drops (Santen Pharmaceutical Co., Ltd in Japan)” for “drops”
(§5) 4) Lanosterol eye drops treatment group (LT): in the P10 day, young rabbits were injected subcutaneously with sodium selenite solution (in physiological saline) at 20 μmol/kg body weight, and after the P15 day, lanosterol eye drops was dripped into the right eye 3 times every day for 42 days.
as §5, with “5)” for “4)”, “Lanosterol prodrug 026” for “Lanosterol”, “(026):” for “(LT):”, “lanosterol prodrug 026” for “lanosterol”
2) Lens transparency test in vitro: on the last day, the animal's eyeball was dissected, the lens containing the capsule was completely separated, and the lens was placed on a grid paper (2.12×2.12 mm).

[3] = test system: ultraviolet-induced New Zealand rabbit cataract model; assay: ultraviolet-induced cataract model, lens transparency test in vitro; format: in vivo, New Zealand rabbits; settings: after 42 days of administration
Method: (§6) Adult New Zealand rabbits 2.0-2.5 kg, normal grade, male and female, a total of 25.
(§7) The experimental rabbits were randomly divided into 5 groups with 5 rabbits per group.
(§8) 1) Normal control group (NC): normal feeding, no drug administration.
(§9) 2) Model control group (MC): 313 nm UV irradiation for 24 hours to make model, then drug-free blank eye drops was dripped to the right eye 3 times every day for 42 days.
(§10) 3) Positive control group (PC): 313 nm UV irradiation for 24 hours to make model, then kary uni eye drops (Santen Pharmaceutical Co., Ltd in Japan) was dripped into the right eye 3 times every day for 42 days.
(§11) 4) Lanosterol eye drops treatment group (LT): 313 nm UV irradiation for 24 hours to make model, then lanosterol eye drops was dripped into the right eye 3 times every day for 42 days.
(§12) 5) Lanosterol prodrug 026 eye drops treatment group (026): 313 nm UV irradiation for 24 hours to make model, then the lanosterol prodrug 026 eye drops was dripped into the right eye 3 times every day for 42 days.
2) lens transparency test in vitro: on the last day, the animal's eyeball was dissected, the lens containing the capsule was completely separated, and the lens was placed on a grid paper (2.12×2.12 mm).

[4] = test system: ultraviolet-induced New Zealand rabbit cataract model; assay: ultraviolet-induced cataract model, slit lamp observation; format: in vivo, New Zealand rabbits; settings: ultraviolet (313 nm, 24 hours) model, eye drops right eye 3 times every day, 42 days, compared with pre-dose
Method: as §6, §7, §8, §9, §10, §11, §12

[5] = test system: lens glutathione peroxidase (GSH-PX) activity; assay: ultraviolet-induced cataract model, lens GSH-PX activity assay; format: in vivo, New Zealand rabbits; settings: after 42 days of administration; for effect on lens GSH-PX activity compared to the other treatment groups: 026 vs kary uni p<0.05
Method: as §6, §7, §8, §9, §10, §11, §12
(§13) 3) Glutathione peroxidase (GSH-PX) activity assay: GSH-PX activity of the isolated rabbit lens in each group was determined by the method provided in the specification of GSH-PX activity detection kit (Nanjing Jiancheng Bioengineering Institute). The experimental data was analyzed by One-Way ANOVA with SPSS statistical software. The LSD method was used to compare the groups, and the statistical difference level was p<0.05.

[6] = test system: sodium selenite-induced neonatal New Zealand rabbit cataract model; assay: sodium selenite-induced cataract model, slit lamp observation; format: in vivo, neonatal New Zealand rabbits; settings: eye drops right eye 3 times every day, 42 days, compared with pre-dose
Method: as §1, §2, §3, §4
as §4, with “3) Positive” for “2) Model”, “(PC):” for “(MC):”, “kary uni eye” for “drug-free blank eyes”, “drops (Santen Pharmaceutical Co., Ltd in Japan)” for “drops”
4) Lanosterol eye drops treatment group (LT): in the P10 day, young rabbits were injected subcutaneously with sodium selenite solution (in physiological saline) at 20 μmol/kg body weight, and after the P15 day, lanosterol eye drops was dripped into the right eye 3 times every day for 42 days. […]

[7] = test system: lens glutathione peroxidase (GSH-PX) activity; assay: sodium selenite-induced cataract model, lens GSH-PX activity assay; format: in vivo, neonatal New Zealand rabbits; settings: after 42 days of administration; for effect on lens GSH-PX activity compared to the other treatment groups: 026 vs kary uni p<0.01
Method: as §1, §2, §3, §4
as §4, with “3) Positive” for “2) Model”, “(PC):” for “(MC):”, “kary uni eye” for “drug-free blank eyes”, “drops (Santen Pharmaceutical Co., Ltd in Japan)” for “drops”
as §5
as §5, with “5)” for “4)”, “Lanosterol prodrug 026” for “Lanosterol”, “(026):” for “(LT):”, “lanosterol prodrug 026” for “lanosterol”
as §13

[8] = test system: cataract; settings: background, published in Nature; cited from earlier work
[9] = test system: pre-formed lens protein aggregates; settings: in vitro at the cellular level; background, published in Nature; cited from earlier work
[10] = 6 hours after 250 nmol dripped into each eye of New Zealand white rabbit
[11] = in vivo, 250 nmol per eye, 0.5 hour after 250 nmol dripped into each eye of New Zealand white rabbit, read-out: Average concentration of the dripped compound itself in the aqueous humor
[12] = in vivo, 250 nmol per eye, 2 hours after 250 nmol dripped into each eye of New Zealand white rabbit, read-out: Average concentration of the dripped compound itself in the aqueous humor
[13] = 0.5 hour after 250 nmol dripped into each eye of New Zealand white rabbit
[14] = 2 hours after 250 nmol dripped into each eye of New Zealand white rabbit
[15] = 4 hours after 250 nmol dripped into each eye of New Zealand white rabbit
[16] = listed as lanosterol prodrug 026
[17] = 026 and kary uni p<0.01, lanosterol p>0.05, listed as lanosterol prodrug 026
[18] = 026 and kary uni p<0.01, lanosterol p>0.05

SMILES: COC(=O)[C@H](C)NP(=O)(Oc1ccccc1)O[C@H]1CC[C@]2(C)C3=C(CCC2C1(C)C)[C@]1(C)CC[C@H]([C@H](C)CCC=C(C)C)[C@@]1(C)CC3 (stereo partly shown) [Compound 1]
- Average concentration of Lanosterol in the aqueous humor after the prodrug was dripped ([1]; 0.5 hour after 250 nmol prodrug dripped into each eye of New Zealand white rabbit): BQL
- Average concentration of Lanosterol in the aqueous humor after the prodrug was dripped ([1]; 2 hours after 250 nmol prodrug dripped into each eye of New Zealand white rabbit): BQL
- Average concentration of the dripped compound itself in the aqueous humor [1, 10]: BQL
- concentration at 0.5 h [1, 11]: 7.5 nM
- concentration at 2 h [1, 12]: 8.6 nM

SMILES: CC(C)=CCC[C@@H](C)[C@H]1CC[C@@]2(C)C3=C(CC[C@]12C)[C@@]1(C)CC[C@H](OC(=O)c2ccc([N+](=O)[O-])cc2)C(C)(C)C1CC3 (stereo partly shown) [Compound 4]
- Average concentration of the dripped compound itself in the aqueous humor [1, 13]: BQL
- Average concentration of the dripped compound itself in the aqueous humor [1, 14]: BQL
- Average concentration of the dripped compound itself in the aqueous humor [1, 15]: BQL
- Average concentration of the dripped compound itself in the aqueous humor [1, 10]: BQL

SMILES: CC(C)=CCC[C@@H](C)[C@H]1CC[C@@]2(C)C3=C(CC[C@]12C)[C@@]1(C)CC[C@H](OC(=O)c2ccccc2O)C(C)(C)C1CC3 (stereo partly shown) [Compound 8]
- lens transparency of the right eye compared to the MC group [2]: significantly higher than that of the MC group
- lens transparency of the right eye compared to the NC group [2]: still lower than that of the NC group
- lens transparency of the administered right eye compared to the left eye (self-control) [2, 16]: significantly higher than that of the left eye; also recorded: improve lens transparency
- lens transparency of the right eye compared to the MC group [3]: significantly higher than that of the MC group
- lens transparency of the right eye compared to the NC group [3]: still lower than that of the NC group
- lens transparency of the administered right eye compared to the left eye (self-control) [3, 16]: significantly higher than that of the left eye; also recorded: improve lens transparency
- cataract symptoms, slit lamp observation [4, 16]: cataract symptoms were significantly reduced; also recorded: could alleviate the cataract symptoms
- lens GSH-PX activity compared to the MC group [5, 17]: could increase the GSH-PX activity of the lens; also recorded: improve lens transparency and lens GSH-PX activity
- effect on lens GSH-PX activity compared to the other treatment groups [5]: better than that of kary uni
- cataract symptoms, slit lamp observation [6, 16]: cataract symptoms were significantly reduced; also recorded: could alleviate the cataract symptoms
- lens GSH-PX activity compared to the MC group [7, 17]: could increase the GSH-PX activity of the lens; also recorded: improve lens transparency and lens GSH-PX activity
- effect on lens GSH-PX activity compared to the other treatment groups [7]: better than that of kary uni
- Average concentration of the dripped compound itself in the aqueous humor [1, 10]: BQL
- concentration at 0.5 h [1, 11]: 41 nM
- concentration at 2 h [1, 12]: 33.3 nM
- concentration at 4 h ([1]; in vivo, 250 nmol per eye, 4 hours after 250 nmol dripped into each eye of New Zealand white rabbit, read-out: Average concentration of the dripped compound itself in the aqueous humor): 25.5 nM

SMILES: CC(C)=CCC[C@@H](C)[C@H]1CC[C@@]2(C)C3=C(CC[C@]12C)[C@@]1(C)CC[C@H](OC(=O)c2ccno2)C(C)(C)C1CC3 (stereo partly shown) [Compound 9]
- Average concentration of the dripped compound itself in the aqueous humor [1, 13]: BQL
- Average concentration of the dripped compound itself in the aqueous humor [1, 14]: BQL

SMILES: CC(C)=CCC[C@@H](C)[C@H]1CC[C@@]2(C)C3=C(CC[C@]12C)[C@@]1(C)CC[C@H](OC(=O)c2ncon2)C(C)(C)C1CC3 (stereo partly shown) [Compound 10]
- Average concentration of the dripped compound itself in the aqueous humor [1, 13]: BQL
- concentration at 2 h [1, 12]: 37.9 nM

SMILES: CC(=O)Oc1ccccc1C(=O)O[C@H]1CC[C@]2(C)C3=C(CCC2C1(C)C)[C@]1(C)CC[C@H]([C@H](C)CCC=C(C)C)[C@@]1(C)CC3 (stereo partly shown) [Compound 12]
- AUC (exposure amount) of the dripped compound itself in the aqueous humor ([1]; 250 nmol dripped into each eye of New Zealand white rabbit): BQL
- Average concentration of the dripped compound itself in the aqueous humor [1, 15]: BQL
- Average concentration of the dripped compound itself in the aqueous humor [1, 10]: BQL
- concentration at 0.5 h [1, 11]: 60 nM
- concentration at 2 h [1, 12]: 15.6 nM

SMILES: CC(C)=CCC[C@@H](C)[C@H]1CC[C@@]2(C)C3=C(CC[C@]12C)[C@@]1(C)CC[C@H](O)C(C)(C)[C@@H]1CC3 [Lanosterol]
- lens transparency of the administered right eye compared to the left eye (self-control) [2]: no significant change in lens transparency
- lens transparency of the administered right eye compared to the left eye (self-control) [3]: no significant change in lens transparency
- cataract symptoms, slit lamp observation [4]: did not change significantly
- lens GSH-PX activity compared to the MC group [5, 18]: no statistical difference compared to the MC group
- effect on lens GSH-PX activity compared to the other treatment groups [5]: significantly lower than that of 026 and kary uni
- effect on cataract and lens transparency in vivo [8]: can reverse the condition of cataract
- effect on pre-formed lens protein aggregates [9]: significantly reduce pre-formed lens protein aggregates
- cataract symptoms, slit lamp observation [6]: did not change significantly
- lens GSH-PX activity compared to the MC group [7, 18]: no statistical difference compared to the MC group
- effect on lens GSH-PX activity compared to the other treatment groups [7]: significantly lower than that of 026 and kary uni
- concentration at 0.5 h ([1]; aqueous humor, topical, 250 nmol per eye, 0.5 hour after 250 nmol dripped into each eye of New Zealand white rabbit, read-out: Average concentration of the dripped compound itself in the aqueous humor): 106 nM
- concentration at 2 h ([1]; aqueous humor, topical, 250 nmol per eye, 2 hours after 250 nmol dripped into each eye of New Zealand white rabbit, read-out: Average concentration of the dripped compound itself in the aqueous humor): 496 nM
- concentration at 4 h ([1]; aqueous humor, topical, 250 nmol per eye, 4 hours after 250 nmol dripped into each eye of New Zealand white rabbit, read-out: Average concentration of the dripped compound itself in the aqueous humor): 300 nM
- concentration at 6 h ([1]; aqueous humor, topical, 250 nmol per eye, 6 hours after 250 nmol dripped into each eye of New Zealand white rabbit, read-out: Average concentration of the dripped compound itself in the aqueous humor): 225 nM
- penetration into the aqueous humor / permeability ([1]; eye drops, rabbit, in words): could penetrate into the aqueous humor
